Measured values published in US8697369B2, “Method for screening a test substance for activating a receptor associated with FGF 21 activity” (National Institute of Advanced Industrial Science and …, priority 2007, dated 2014).
“Also recorded” adds a separate entry of the source. Blank lines part the entries; values can stand above or below the substance they belong to.

Legend:
[1] = target: T1, FGFR2c/betaKlotho-expressing cells (Mus musculus, UniProt P21803+Q99N32); test: Phosphorylation of FRS2 and MAPK (Western blotting) in FGFR2c/betaKlotho-expressing cells; format: cell-based; conditions: presence of heparin; 10 minutes stimulation
T1 construct: the entire-length cDNA of mouse betaKlotho was cloned into an animal cell expression vector; expressed in transfected cells; host or cells: BaF3 (mouse pro-B) cells
Experimental: (§1) Each FGFR/betaKlotho-expressing cells obtained in Example 6 were stimulated with FGF, and the activated state (phosphorylated state) of a signaling molecule FRS2 (fibroblast growth factor receptor substrate 2) located downstream of FGFR, and that of MAPK (mitogen activated protein kinase; alias: ERK (extracellular signal-regulated kinase; in general, there are two types of ERKs, namely, ERK1 with a molecular weight of 44 kDa and ERK2 with a molecular weight of 42 kDa)), were analyzed. Different types of cells were stimulated with each FGF in the presence of heparin for 10 minutes, and a cell lysate was then prepared. Thereafter, the phosphorylated degree was evaluated by measuring it by a Western blotting method using a commercially available anti-phosphorylation FRS2 antibody or an anti-phosphorylation MAPK antibody.

[2] = system: FGFR4/betaKlotho-expressing cells; test: Phosphorylation of FRS2 and MAPK (Western blotting) in FGFR4/betaKlotho-expressing cells; format: cell-based, mouse; conditions: presence of heparin; 10 minutes stimulation
Experimental: as §1

[3] = system: FGFR3c/betaKlotho-expressing BaF3 cells; test: DNA synthesis (thymidine incorporation) in FGFR3c/betaKlotho-expressing BaF3 cells; format: cell-based, mouse
Experimental: (§2) A commonly used measurement method is a cell growth stimulating activity measurement method described in Ornitz, D. M., Xu, J., Colvin, J. S., McEwen, D. G., MacArthur, C. A., Coulier, F., Gao, G. and Goldfarb, M. (1996) Receptor specificity of the fibroblast growth factor family. J Biol Chem, 271, 15292-15297. The summary thereof is as follows. FGF used as a measurement target is added to a culture solution containing a cultured cell having an FGF receptor on the surface thereof, and the obtained mixture is cultured for a certain period of time. Thereafter, a labeled thymidine is added to the culture solution, followed by further culture for a certain period of time. By measuring the amount of the labeled thymidine incorporated into polymeric DNA during the culture, the degree of FGF to activate DNA synthesis is evaluated. (In the present invention as well, this method was adopted when the activity of FGF21 was measured in Examples 4, 5, 6, 8, 9, and 10.)
(§3) Whether other receptor molecules can also act as such FGF receptors was examined. An expression vector containing each FGFR (FGFR1b, R1c, R2b, R2c, R3b, R3c, and R4) (described in Ornitz, D. M., Xu, J., Colvin, J. S., McEwen, D. G., MacArthur, C. A., Coulier, F., Gao, G. and Goldfarb, M. (1996) Receptor specificity of the fibroblast growth factor family. J Biol Chem, 271, 15292-15297.) was introduced into betaKlotho-expressing BaF3 cells, so as to obtain clones that were resistant to Puromycin and G418, thereby obtaining FGFR/betaKlotho-expressing cells. Such cells were stimulated with FGF21, and the amount of DNA synthesized was measured.
The activity of FGF21 to stimulate the DNA synthesis of BaF3 cells that had expressed each FGFR (FGFR1c, R2c, F3c, and R4) as well as betaKlotho was compared with the activity of FGF19, which was evolutionally relative to FGF21. By procedures opposite to those of Example 5, namely, an expression vector containing betaKlotho was introduced into BaF3 cells that had expressed each type of FGFR, so as to obtain Puromycin- and G418-resistant clones, thereby obtaining FGFR/betaKlotho-expressing cells. The cells were stimulated with FGF21, FGF19, and FGF1 in the presence of heparin, while changing the amounts of FGF21, FGF19, and FGF1, as shown in the figure, and the amount of DNA synthesized was then measured.

[4] = target: T2, FGFR1c/betaKlotho-expressing BaF3 cells (Mus musculus, UniProt P16092+Q99N32); test: DNA synthesis (thymidine incorporation) in FGFR1c/betaKlotho-expressing BaF3 cells; format: cell-based
T2 construct: the entire-length cDNA of mouse FGFR1c had been cloned; the entire-length cDNA of mouse betaKlotho was cloned into an animal cell expression vector; expressed in transfected cells; host or cells: BaF3 (mouse pro-B) cells
Experimental: as §2
FGFR1c-expressing BaF3 cells and FGFR1c- and betaKlotho-expressing BaF3 cells were prepared as follows. In the case of FGFR1c-expressing BaF3 cells, an animal cell expression vector into which the entire-length cDNA of mouse FGFR1c had been cloned (described in Ornitz, D. M., Xu, J., Colvin, J. S., McEwen, D. G., MacArthur, C. A., Coulier, F., Gao, G. and Goldfarb, M. (1996) Receptor specificity of the fibroblast growth factor family. J Biol Chem, 271, 15292-15297.) was introduced into BaF3 cells by an electroporation method. The cells were then cultured in the presence of G418 for approximately 2 weeks, so as to obtain drug-resistant clones. Thereafter, such clones were obtained as those capable of growing as a result of FGF1 stimulation. In the case of both FGFR1c- and betaKlotho-expressing BaF3 cells, the entire-length cDNA of mouse betaKlotho was cloned into an animal cell expression vector, and it was then introduced into the FGFR1c-expressing BaF3 cells. The cells were then cultured in the presence of Puromycin and G418 for approximately 2 weeks, so as to obtain drug-resistant clones. In the case of only betaKlotho-expressing BaF3 cells, a betaKlotho-expressing vector was introduced into BaF3 cells, and Puromycin-resistant clones were then obtained. The BaF3 cells, into which the aforementioned genes had been each introduced, were maintained in an RPMI1640 medium containing 10% FBS and interleukin 3 (IL3, supplied by adding a 5% condition medium of WEHI-3 cells). For the growth stimulation experiment, the cells were washed with an RPMI1640 medium, and they were then suspended in an RPMI1640 medium containing 10% FBS, followed by inoculating the suspension on a culture plate. Thereafter, the resultant cells were used.
Immediately after inoculation, BaF3 cells that had expressed each clone and only FGFR1c were stimulated by addition of FGF21 (open bar) or PBS (filled bar) used as a control in the presence of heparin, and they were then cultured for 42 hours. Thereafter, tritium-labeled thymidine was added to the culture solution, and the culture was further continued for 6 hours. Thereafter, the amount of thymidine incorporated into the cells was measured, so as to evaluate DNA synthesis. A DNA synthesis value obtained when the cells were not stimulated with FGF21 was defined as 1, and the ratio of a DNA synthesis value obtained by stimulating with FGF21 to the aforementioned DNA synthesis value was expressed using magnification. […]

[5] = target: T3, R1c/betaKlotho-expressing cells (Mus musculus, UniProt P16092+Q99N32); test: Phosphorylation of FRS2 and MAPK (Western blotting) in R1c/betaKlotho-expressing cells; format: cell-based; conditions: presence of heparin; 10 minutes stimulation
T3 construct: the entire-length cDNA of mouse FGFR1c had been cloned; the entire-length cDNA of mouse betaKlotho was cloned into an animal cell expression vector; expressed in transfected cells; host or cells: BaF3 (mouse pro-B) cells
Experimental: as §1

[6] = target: T4, FGFR2c/betaKlotho-expressing BaF3 cells (Mus musculus, UniProt P21803+Q99N32); test: DNA synthesis (thymidine incorporation) in FGFR2c/betaKlotho-expressing BaF3 cells; format: cell-based; conditions: BaF3 cells expressing FGFR2c and betaKlotho; presence of heparin
T4 construct: the entire-length cDNA of mouse betaKlotho was cloned into an animal cell expression vector; expressed in transfected cells; host or cells: BaF3 (mouse pro-B) cells
Experimental: as §2, §3
(§4) The activity of FGF21 to stimulate the DNA synthesis of BaF3 cells that had expressed each FGFR (FGFR1c, R2c, F3c, and R4) as well as betaKlotho was compared with the activity of FGF19, which was evolutionally relative to FGF21. […] The cells were stimulated with FGF21, FGF19, and FGF1 in the presence of heparin, while changing the amounts of FGF21, FGF19, and FGF1, as shown in the figure, and the amount of DNA synthesized was then measured.

[7] = system: R3c/betaKlotho-expressing cells; test: Phosphorylation of FRS2 and MAPK (Western blotting) in R3c/betaKlotho-expressing cells; format: cell-based, mouse; conditions: presence of heparin; 10 minutes stimulation
Experimental: as §1

[8] = system: FGFR4/betaKlotho-expressing BaF3 cells; test: DNA synthesis (thymidine incorporation) in FGFR4/betaKlotho-expressing BaF3 cells; format: cell-based, mouse; conditions: BaF3 cells expressing FGFR4 and betaKlotho; presence of heparin
Experimental: as §2, §3, §4

[9] = target: T5, betaKlotho-expressing BaF3 cells (Mus musculus, UniProt Q99N32); test: DNA synthesis (thymidine incorporation) in BaF3 cells expressing only betaKlotho; format: cell-based; conditions: presence or absence of heparin
T5 construct: the entire-length cDNA of mouse betaKlotho was cloned into an animal cell expression vector; expressed in transfected cells; host or cells: BaF3 (mouse pro-B) cells
T5 sequence (Q99N32 1-1043): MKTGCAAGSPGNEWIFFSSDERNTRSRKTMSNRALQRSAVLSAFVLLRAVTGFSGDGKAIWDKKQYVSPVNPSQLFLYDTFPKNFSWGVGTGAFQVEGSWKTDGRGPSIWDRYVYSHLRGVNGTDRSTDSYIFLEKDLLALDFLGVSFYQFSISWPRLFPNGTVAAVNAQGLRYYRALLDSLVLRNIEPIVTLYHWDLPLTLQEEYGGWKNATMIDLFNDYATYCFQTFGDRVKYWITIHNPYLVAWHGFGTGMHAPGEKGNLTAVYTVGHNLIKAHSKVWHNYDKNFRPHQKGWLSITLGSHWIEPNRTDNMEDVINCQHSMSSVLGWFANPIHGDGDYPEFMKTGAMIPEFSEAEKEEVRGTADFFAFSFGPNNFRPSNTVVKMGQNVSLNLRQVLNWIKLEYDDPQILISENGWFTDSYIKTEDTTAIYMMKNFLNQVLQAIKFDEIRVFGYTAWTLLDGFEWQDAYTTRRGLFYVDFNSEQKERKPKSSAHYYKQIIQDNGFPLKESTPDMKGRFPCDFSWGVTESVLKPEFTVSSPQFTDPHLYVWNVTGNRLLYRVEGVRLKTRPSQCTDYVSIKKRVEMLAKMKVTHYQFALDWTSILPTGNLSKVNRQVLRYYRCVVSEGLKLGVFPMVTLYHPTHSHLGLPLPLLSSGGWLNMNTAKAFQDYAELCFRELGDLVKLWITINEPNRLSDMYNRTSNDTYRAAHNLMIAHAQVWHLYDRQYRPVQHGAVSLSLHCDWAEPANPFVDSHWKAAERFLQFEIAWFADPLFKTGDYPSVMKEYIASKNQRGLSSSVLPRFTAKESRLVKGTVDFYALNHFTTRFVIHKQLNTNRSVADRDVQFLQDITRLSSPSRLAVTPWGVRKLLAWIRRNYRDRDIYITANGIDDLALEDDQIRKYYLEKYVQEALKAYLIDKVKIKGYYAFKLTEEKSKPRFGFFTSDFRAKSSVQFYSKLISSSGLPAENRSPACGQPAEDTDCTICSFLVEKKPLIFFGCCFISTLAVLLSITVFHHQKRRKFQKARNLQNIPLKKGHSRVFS
Experimental: as §2, with “10.) […]” for “10.)”
Immediately after inoculation, BaF3 cells that had expressed each clone and only FGFR1c were stimulated by addition of FGF21 (open bar) or PBS (filled bar) used as a control in the presence of heparin, and they were then cultured for 42 hours. […] Thereafter, the amount of thymidine incorporated into the cells was measured, so as to evaluate DNA synthesis. […]

T2 sequence (P16092 22-822, one chain of several): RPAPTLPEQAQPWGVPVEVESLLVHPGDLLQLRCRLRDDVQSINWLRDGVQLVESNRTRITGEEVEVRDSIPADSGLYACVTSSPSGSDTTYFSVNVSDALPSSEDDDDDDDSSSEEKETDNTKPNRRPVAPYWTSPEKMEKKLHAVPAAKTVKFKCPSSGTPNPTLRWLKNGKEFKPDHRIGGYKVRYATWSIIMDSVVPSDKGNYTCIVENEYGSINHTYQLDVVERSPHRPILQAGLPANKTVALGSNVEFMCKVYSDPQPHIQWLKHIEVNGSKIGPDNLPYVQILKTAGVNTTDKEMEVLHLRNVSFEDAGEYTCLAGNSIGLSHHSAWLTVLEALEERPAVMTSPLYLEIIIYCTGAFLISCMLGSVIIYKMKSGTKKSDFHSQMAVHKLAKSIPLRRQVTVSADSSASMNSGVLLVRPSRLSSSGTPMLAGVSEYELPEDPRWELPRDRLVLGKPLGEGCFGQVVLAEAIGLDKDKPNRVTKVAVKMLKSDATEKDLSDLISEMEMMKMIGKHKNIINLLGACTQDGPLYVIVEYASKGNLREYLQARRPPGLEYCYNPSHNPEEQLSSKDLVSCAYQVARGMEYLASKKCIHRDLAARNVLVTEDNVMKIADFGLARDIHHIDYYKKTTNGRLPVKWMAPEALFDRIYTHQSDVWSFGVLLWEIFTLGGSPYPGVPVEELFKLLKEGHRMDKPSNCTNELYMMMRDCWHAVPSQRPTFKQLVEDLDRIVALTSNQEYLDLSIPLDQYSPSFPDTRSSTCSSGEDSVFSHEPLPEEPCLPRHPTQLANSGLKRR
Chain of FGFR3c/betaKlotho-expressing BaF3 cells (Q61851 21-369 limits assumed, one chain of several): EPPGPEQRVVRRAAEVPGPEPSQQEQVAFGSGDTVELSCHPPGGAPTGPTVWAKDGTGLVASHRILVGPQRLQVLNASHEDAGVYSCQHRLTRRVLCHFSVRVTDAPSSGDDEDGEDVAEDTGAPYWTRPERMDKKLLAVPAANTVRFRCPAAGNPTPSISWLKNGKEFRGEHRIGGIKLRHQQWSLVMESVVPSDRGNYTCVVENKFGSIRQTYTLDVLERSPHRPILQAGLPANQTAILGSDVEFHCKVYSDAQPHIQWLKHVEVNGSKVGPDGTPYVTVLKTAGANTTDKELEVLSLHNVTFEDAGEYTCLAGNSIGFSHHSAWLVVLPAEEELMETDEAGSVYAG
Chain of R3c/betaKlotho-expressing cells (Q61851 21-369 limits assumed, one chain of several): as above
T1 sequence (P21803 22-821, one chain of several): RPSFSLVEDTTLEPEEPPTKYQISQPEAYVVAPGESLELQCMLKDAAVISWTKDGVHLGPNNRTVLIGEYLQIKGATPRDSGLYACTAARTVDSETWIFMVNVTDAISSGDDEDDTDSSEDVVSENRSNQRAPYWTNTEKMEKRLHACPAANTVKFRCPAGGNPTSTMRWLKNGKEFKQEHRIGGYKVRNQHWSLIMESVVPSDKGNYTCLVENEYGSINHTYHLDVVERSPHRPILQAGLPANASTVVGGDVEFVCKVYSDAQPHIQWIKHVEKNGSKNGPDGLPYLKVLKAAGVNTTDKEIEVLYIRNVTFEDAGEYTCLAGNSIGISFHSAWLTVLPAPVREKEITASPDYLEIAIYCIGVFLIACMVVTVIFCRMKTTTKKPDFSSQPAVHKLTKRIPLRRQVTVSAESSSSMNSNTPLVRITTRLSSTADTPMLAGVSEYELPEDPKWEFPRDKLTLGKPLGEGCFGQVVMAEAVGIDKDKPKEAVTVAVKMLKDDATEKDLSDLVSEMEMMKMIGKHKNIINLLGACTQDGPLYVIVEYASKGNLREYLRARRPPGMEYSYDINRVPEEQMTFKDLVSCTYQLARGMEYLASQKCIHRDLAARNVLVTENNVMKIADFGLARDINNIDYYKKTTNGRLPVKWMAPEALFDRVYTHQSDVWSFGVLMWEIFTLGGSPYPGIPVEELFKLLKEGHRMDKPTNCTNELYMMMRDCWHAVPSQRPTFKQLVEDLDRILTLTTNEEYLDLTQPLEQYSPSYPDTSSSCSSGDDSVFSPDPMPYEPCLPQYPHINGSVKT
T4 sequence (P21803 22-821, one chain of several): as above
T3 sequence (P16092 22-822, one chain of several): as the sequence (P16092 22-822, one chain of several) above
Chain of FGFR4/betaKlotho-expressing BaF3 cells (Q03142 17-366 limits assumed, one chain of several): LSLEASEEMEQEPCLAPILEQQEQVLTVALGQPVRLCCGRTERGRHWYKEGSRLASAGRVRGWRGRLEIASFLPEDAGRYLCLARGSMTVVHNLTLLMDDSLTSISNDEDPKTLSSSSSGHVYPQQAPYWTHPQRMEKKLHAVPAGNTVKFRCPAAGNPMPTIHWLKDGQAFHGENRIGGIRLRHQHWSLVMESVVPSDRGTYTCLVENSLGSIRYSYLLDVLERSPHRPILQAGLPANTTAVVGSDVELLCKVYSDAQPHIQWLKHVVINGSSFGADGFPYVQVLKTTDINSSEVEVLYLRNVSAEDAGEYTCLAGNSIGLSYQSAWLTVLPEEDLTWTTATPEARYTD
Chain of FGFR4/betaKlotho-expressing cells (Q03142 143-366 limits assumed, one chain of several): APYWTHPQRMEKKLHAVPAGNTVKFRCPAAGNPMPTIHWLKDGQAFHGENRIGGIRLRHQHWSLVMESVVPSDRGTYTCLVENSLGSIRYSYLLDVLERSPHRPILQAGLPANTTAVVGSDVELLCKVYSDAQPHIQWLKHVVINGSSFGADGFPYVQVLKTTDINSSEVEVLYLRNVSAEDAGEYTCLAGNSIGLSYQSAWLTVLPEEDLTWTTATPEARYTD

DNA synthesis (thymidine incorporated into the cells) ([4]; BaF3 cells expressing FGFR1c and betaKlotho, presence or absence of heparin): strong activity | DNA synthesis (thymidine incorporated into the cells) [6]: strong activity
Substance: FGF19: FGF family member evolutionally relative to FGF21, used for comparison
phosphorylation of FRS2 and MAPK [1]: significantly increase the phosphorylation | phosphorylation of FRS2 and MAPK [2]: significantly increase the phosphorylation | DNA synthesis (thymidine incorporated into the cells) ([3]; BaF3 cells expressing FGFR3c and betaKlotho): strong activity | phosphorylation of FRS2 and MAPK [5]: significantly increase the phosphorylation | phosphorylation of FRS2 and MAPK [7]: significantly increase the phosphorylation | DNA synthesis (thymidine incorporated into the cells) [8]: strong activity

Substance: heparin [reference compound]
effect of heparin on reactivity with FGF21 (DNA synthesis) ([3]; FGFR3c/betaKlotho-expressing BaF3 cells stimulated with FGF21): reactivity was increased | effect of heparin on the action of FGF21 (DNA synthesis) ([4]; FGFR1c/betaKlotho-expressing BaF3 cells stimulated with FGF21): increases the action of FGF21; also recorded: reactivity was increased

DNA synthesis (thymidine incorporated into the cells) [9]: significantly grew
Substance: interleukin 3 [reference compound]
